Reference: patent US8629100B2, “Method of inhibiting clostridium difficile by administration of oritavancin” (The Medicines Company, priority 2007, dated 2014)

Columns and labels:
[1] = test system: Staphylococcus aureus NCTC 6571; experiment: Growth on antibiotic-exposed cellulose acetate filters (Example 3C); assay type: cell-based; details: overnight culture
Description: One mL solutions (containing no C. difficile spores) were processed as in Experiment 2B and filters placed onto Braziers CCEY agar. Onto the filters were inoculated 2×20 μL of:
c) Staphylococcus aureus NCTC 6571 (Oxford strain, overnight culture).
Growth/no growth was recorded following anaerobic incubation.

[2] = test system: C. difficile ATCC 43255; experiment: Hamster model of CDI, intravenous administration; assay type: in vivo, Syrian golden hamsters
Description: C. difficile ATCC 43255 was used in all experiments. This strain was originally isolated from an abdominal wound and is toxin A+/B+ and binary toxin negative. C. difficile spores were prepared for the infection by incubating C. difficile cells on blood agar plate at 37° C. anaerobically for 7 days, to promote spore formation. The C. difficile colonies were resuspended in phosphate buffered saline (PBS) and mixed with an equal volume of 100% ethanol for one hour. The spores were centrifuged, resuspended in PBS, aliquoted, and frozen at −20° C. Spores were diluted in PBS for oral inoculation into hamsters.
All studies were performed in accordance with protocols that were approved by the Institutional Animal Care and Use Committee. […] One day later (Day 0), animals were infected orally with 10^5 C. difficile spores by oral gavage.
Starting on Day 1 post-infection, either vehicle, vancomycin (50 mg/kg), or oritavancin formulated in 10% hydroxypropyl β-cyclodextrin (HPCD) (50 mg/kg) was administered intravenously […] to the hamsters (n=10/group). A total of either 1, 2 or 3 doses of oritavancin was injected on Days 1, 3, and 5, respectively (q2d).
The infected hamsters received the first dose of antibiotic on day 1 and treatment was repeated each 2 days for up to five days; an untreated group was used as control.

[3] = test system: indigenous gut microflora; experiment: In vitro human gut model: indigenous gut microflora counts; assay type: cell-based; details: for Decline in Bacteroides populations / Decline in enterococcal populations: following instillation, period E, vessel 3
Source text: The gut model was designed to allow the study of the intestinal microflora in the low pH, carbohydrate-excess conditions of the proximal colon and the carbohydrate-depleted, non-acidic conditions of the distal colon (Macfarlane et al., Microb Ecol 1998; 35: 180-7). Microbiological and physicochemical measurements within the gut model vessels were validated against the intestinal contents of sudden death victims (Macfarlane et al., Microb Ecol 1998; 35: 180-7). Each gut model consists of three fermentation vessels connected in a weir cascade system top-fed with growth medium at a controlled rate (D=0.015 h^−1). Vessels were sparged with oxygen-free nitrogen to ensure anaerobiosis, heated via a water-jacketed system (37° C.) and maintained at specific pH using fermenter controller units (Biosolo 3, Brighton Systems, UK) delivering 0.5 M HCl/NaOH. Vessel 1 (280 mL) was operated at pH 5.5 and high substrate availability, thus reflecting the conditions within the proximal colon, while vessels 2 and 3 (300 mL) were operated at pH 6.2 and 6.8, respectively, with low substrate availability, thus reflecting the conditions within the distal colon. The gut model was primed with faecal slurry ˜10% (w/v) and allowed to equilibrate with respect to bacterial populations for 14 days.
Faecal samples were collected from five healthy elderly (>65 years) volunteers and immediately transported to the laboratory under anaerobic conditions (GasPak, Oxoid, Basingstoke, UK). […] C. difficile-negative faeces were pooled and a coarse-filtered slurry (˜10% w/v) in sterile pre-reduced phosphate-buffered saline was prepared. Vessels of the gut models were filled to approximately two-thirds volume, and the growth medium pumps were started.
Major culturable components of the indigenous gut microflora and C. difficile were enumerated by viable counting (log10 cfu/mL) on selective and non-selective agars as reported previously (Freeman et al., J Antimicrob Chemother 2005; 56: 717-25). Bacterial groups enumerated were: total facultative anaerobes, facultatively anaerobic lactose fermenters, total anaerobes, bifidobacteria, Bacteroides fragilis group, total clostridia, lactobacilli, enterococci, total C. difficile and C. difficile spores. C. difficile cytotoxin production was quantified using a Vero cell cytotoxicity assay as described previously (Freeman et al., J Antimicrob Chemother 2003; 52: 96-102). Cytotoxin titres were expressed in log10 relative units (RU). Only C. difficile total bacterial counts, spore counts and cytotoxin titres were enumerated in vessel 1 of the gut model.
The use of the gut model to evaluate therapeutic interventions for CDI has been described previously (Freeman et al., J Antimicrob Chemother 2007; 60: 83-91; Freeman et al., J Antimicrob Chemother 2005; 56: 717-25). Briefly, following inoculation of each gut model with the faecal slurry, no further interventions were made for 13 days (period A). During period A, bacterial populations were enumerated every 2 days. Next (day 14), vessel 1 of each gut model was inoculated with a single inoculum of ˜10^7 cfu C. difficile PCR ribotype 027 spores (Freeman et al., J Antimicrob Chemother 2003; 52: 96-102), with no further interventions for 7 days (period B). From this point onwards, bacterial populations were enumerated daily.

[4] = test system: C. difficile vegetative cultures and spores; experiment: Spiral gradient endpoint analysis MIC; assay type: cell-based
Description: C. difficile PCR ribotypes 001, 106 and 027 were inoculated onto Columbia blood agar and incubated anaerobically (37° C.) for 10 d. Growth was harvested into sterile saline and alcohol shocked in an equal volume of 100% ethanol for 1 h. Alcohol-shocked spore suspensions were mixed by vortexing and sonicated for 5 minutes at room temperature. C. difficile phase-bright (non-germinated) spores were separated from phase-dark (germinated) spores and cellular debris by density gradient centrifugation (4000 rpm 15 minutes) following layering onto 50% (v/v in phosphate buffered saline) Urografin 370 (Schering, Germany). The density gradient centrifugation step was performed twice. Pellets of purified spores were re-suspended in sterile saline (1 mL per 10 Columbia blood agar plates harvested). Percentage phase-bright spores, phase-dark spores and vegetative cells were recorded using phase-contrast microscopy (×100 magnification).
A spiral plater (WASP2, Don Whitley Scientific, UK) was used to apply a logarithmic antibiotic gradient onto the surface of pre-dried (37° C. 20 minutes) Brazier's agar (pH 7). Agar with logarithmic antimicrobial gradients applied to their surface remained at room temperature for 1 h to allow the antimicrobial agent to adsorb into the agar. C. difficile vegetative cultures and spores (˜10^7 cfu/mL) were inoculated onto the agar surface (FIG. 1) with a sterile cotton swab and incubated anaerobically (37° C., 24 h). D-values were measured (in mm) and converted to MICs (Paton, J. H.1990. Int J Exp Clin Chemother. 9, 31-38).

[5] = three intravenous doses 50 mg/kg q2d (Days 1, 3, 5)

Row | Structure (SMILES) | Growth of S. aureus NCTC 6571 on filters through which antibiotic had been filtered [1] | Proportional survival rate on Day 5 ([2]; 50 mg/kg q2d intravenous) | Treated animals that died between the second and third injections (Days 3 and 5) ([2]; 50 mg/kg q2d intravenous) | Survival prolonged compared to untreated animals [2, 5] | Decline in Bacteroides populations [3] | Decline in enterococcal populations [3] | Bifidobacteria lower than steady-state (period A) after cessation of instillation ([3]; period F) | MICs for C. difficile vegetative cells versus spores ([4]; data not shown) | Survival longer than animals with equivalent dose and regimen (2×q2d) of vancomycin ([2]; 2 doses 50 mg/kg intravenous) | Survival prolonged compared to untreated animals ([2]; one intravenous dose 50 mg/kg (Day 1), in 10% HPCD) | Survival prolonged compared to untreated animals ([2]; two intravenous doses 50 mg/kg q2d (Days 1 and 3), in 10% HPCD) | Bifidobacteria after cessation of instillation ([3]; period F) | MICs against C. difficile spores lower than against vegetative cells ([4]; Brazier's agar pH 7, 24 h)
1 | CN[C@H](CC(C)C)C(=O)N[C@H]1C(=O)N[C@@H](CC(N)=O)C(=O)N[C@H]2C(=O)N[C@H]3C(=O)N[C@H](C(=O)N[C@H](C(=O)O)c4cc(O)cc(O)c4-c4cc3ccc4O)[C@H](O)c3ccc(c(Cl)c3)Oc3cc2cc(c3O[C@@H]2O[C@H](CO)[C@@H](O)[C@H](O)[C@H]2O[C@H]2C[C@](C)(N)[C@H](O)[C@H](C)O2)Oc2ccc(cc2Cl)[C@H]1O [vancomycin] | grew | 30% | 70% | 8 days | ~6 log10 cfu/mL | ~1 log10 cfu/mL | ~2 log10 cfu/mL | did not differ substantially | – | – | – | – | –
2 | CN[C@H](CC(C)C)C(=O)N[C@H]1C(=O)N[C@@H](CC(N)=O)C(=O)N[C@H]2C(=O)N[C@H]3C(=O)N[C@H](C(=O)N[C@H](C(=O)O)c4cc(O)cc(O)c4-c4cc3ccc4O)[C@H](O[C@H]3C[C@](C)(N)[C@@H](O)[C@H](C)O3)c3ccc(c(Cl)c3)Oc3cc2cc(c3O[C@@H]2O[C@H](CO)[C@@H](O)[C@H](O)[C@H]2O[C@H]2C[C@](C)(NCc3ccc(-c4ccc(Cl)cc4)cc3)[C@@H](O)[C@H](C)O2)Oc2ccc(cc2Cl)[C@H]1O [oritavancin, N-(4-(4-chlorophenyl)benzyl)A82846B] | grew | – | – | 7 days | ~1 log10 cfu/mL | ~2 log10 cfu/mL | – | – | 5 days | 4 days | 5 days | remained below the limits of detection | 5-13 fold
